Usually solubility stands for the dissolved amount per volume that the medium holds.

This note sets out measurements from patent publication US7989631B2, “Hydrate forms of AMG706” (Amgen Inc., priority 2006, dated 2011).

Data set [1] is described as follows: Conversion of anhydrous diphosphate salt to monophosphate hydrate salt in water. The data set is classed as physicochemical. The following applies: in the presence of water or aqueous co-solvent mixtures. The text has this: The anhydrous diphosphate sale of AMG 706 is currently manufactured as a crystalline form. This crystalline form is used in the table formulations for clinical trials.
The monophosphate dihydrate salt was isolated and characterized by various analytical tools for its physico-chemical properties. Interconversion kinetics of anhydrous diphosphate to monophosphate dihydrate was studied under various conditions.

A short description of data set [2]: Solubility of AMG 706 anhydrous diphosphate salt in water over time. The data set is classed as physicochemical. The following applies: thermodynamic from solid. As for the experimental part: AMG 706 anhydrous diphosphate (˜100 mg) salt was added to 2 mL of water and placed on a rotator stirrer. Multiple runs were performed each at different temperatures between about room temperature to about 40° C. Solid was isolated at various time points by vacuum filtering the supernatant and the material was air-dried overnight.

Take `CC1(C)CNc2cc(NC(=O)c3cccnc3NCc3ccncc3)ccc21` [AMG 706 anhydrous diphosphate, N-(2,3-dihydro-3,3-dimethyl-1H-indol-6-yl)-2-[(4-pyridinylmethyl)amino]-3-pyridinecarboxamide]: the “Solid-form stability (disproportionation/conversion)” value in data set [1] was “can disproportionate and convert to a more stable monophosphate hydrate salt”. Moreover, the solubility at 0.5 hr in data set [2] (time 0.5 hr, RT, pH 2.6) stood at 22 mg/mL. For the same compound, in data set [2] (time 1.0 hr, RT, pH 2.7), the solubility at 1 hr was determined as 21 mg/mL. Also, in data set [2] (time 3.0 hr, RT, pH 2.7), the solubility at 3 hr was 21 mg/mL. For the same compound, the solubility at 6 hr worked out at 20 mg/mL in data set [2] (40 C, pH 2.6) and 21 mg/mL in data set [2] (RT, pH 2.6). In addition, the solubility at 24 hr is 26 mg/mL in data set [2] (40 C, pH 3.0) and 21 mg/mL in data set [2] (RT, pH 2.9).
